What was measured:
[1] = tested on: crop plants, such as wheat; experiment: Post-emergence test (crop plant tolerance); assay type: in vivo; details: some crop plants, e.g. wheat, rated after three weeks
[2] = tested on: crop plants, such as corn and sugar beet; experiment: Pre-emergence test (crop plant tolerance); assay type: in vivo; details: some crop plants, e.g. corn and sugar beet, rated after three weeks
weeds [3] = experiment: Post-emergence test (herbicidal activity); assay type: in vivo; details: test plants of 5-15 cm sprayed, rated after three weeks
[4] = log P determination by HPLC (EEC directive 79/831 Annex V.A8, reverse-phase C 18); details: for chromatographic logP: reverse-phase C18 HPLC column, pH 2.3; for logP: HPLC, reverse-phase C 18, 43° C., acidic range: 0.1% aqueous phosphoric acid/acetonitrile gradient (marked a))
weeds [5] = experiment: Pre-emergence test (herbicidal activity); assay type: in vivo; details: soil sprayed 24 hours after sowing, rated after three weeks

Row | SMILES | tolerance by crop plants [1] | tolerance by crop plants [2] | logP [4] | other results
1 | CCOC(=O)C1CCN(c2cc(-n3c(=O)cc(C(F)(F)F)[nH]c3=O)c(F)cc2C#N)CC1 |  |  |  | melting point: 124.5 °C
2 | CCOC(=O)C1CCN(c2cc(-n3c(=O)cc(C(F)(F)F)n(C)c3=O)c(F)cc2C#N)CC1 [Example 2, 3-[4-cyano-5-(4-ethoxycarbonylpiperidin-1-yl)-2-fluorophenyl]-1-methyl-6-trifluoromethyl-1H-pyrimidine-2,4-dione] | tolerated well | tolerated well |  | activity against weeds (degree of damage vs untreated control) (weeds [3]): very strong activity; chromatographic logP [4]: 3.23; activity against weeds (degree of damage vs untreated control) (weeds [5]): very strong activity
3 | Cn1c(C(F)(F)F)cc(=O)n(-c2cc(N3C(=O)CN(C4CC4)C3=O)c(C#N)cc2F)c1=O [Example 3, 3-[4-cyano-2-fluoro-5-(1-cyclopropyl-2,4-dioxoimidazolidin-3-yl)phenyl]-1-methyl-6-trifluoromethyl-1H-pyrimidine-2,4-dione] | tolerated well | tolerated well |  | activity against weeds (degree of damage vs untreated control) (weeds [3]): very strong activity; chromatographic logP [4]: 2.25; activity against weeds (degree of damage vs untreated control) (weeds [5]): very strong activity
4 | Cc1ccc(C)n1-c1cc(-n2c(=O)cc(C(F)(F)F)n(C)c2=O)c(F)cc1C#N [Example 4] | tolerated well | tolerated well |  | 
5 | Cn1c(C(F)(F)F)cc(=O)n(-c2cc(-n3cccc3)c(C#N)cc2F)c1=O [Example 5] | tolerated well | tolerated well |  | 
6 | Cn1c(C(F)(F)F)cc(=O)n(-c2cc(-n3ccc(C=O)c3)c(C#N)cc2F)c1=O [Example 6] | tolerated well | tolerated well | m.p.: 174 °C logP = 2.25^a) | 
7 | CCOC(=O)CCN1CC(=O)N(c2cc(-n3c(=O)cc(C(F)(F)F)n(C)c3=O)c(F)cc2C#N)C1=O [Example 8] |  |  | logP = 2.48^a) | 
8 | Cn1c(C(F)(F)F)cc(=O)n(-c2cc(N3C(=O)C4CCCCN4C3=O)c(C#N)cc2F)c1=O (stereo not drawn) [Example 9] | tolerated well | tolerated well | logP = 2.42^a) | 
9 | CC1OC(=O)N(c2cc(-n3c(=O)cc(C(F)(F)F)n(C)c3=O)c(F)cc2C#N)C1=O (stereo not drawn) [Example 10] | tolerated well |  | logP = 2.49^a) | 
10 | Cn1c(C(F)(F)F)cc(=O)n(-c2cc(N3C(=O)CSC3=O)c(C#N)cc2F)c1=O [Example 11] | tolerated well |  | logP = 2.36^a) | activity against weeds (degree of damage vs untreated control) (weeds [3]): very strong activity
11 | Cn1c(C(F)(F)F)cc(=O)n(-c2cc(N3C(=O)COC3=O)c(C#N)cc2F)c1=O [Example 12] | tolerated well |  |  | 
12 | CCOC(=O)C1CCN(c2cc(-n3c(=O)cc(C(F)(F)F)n(N)c3=O)c(F)cc2C#N)CC1 [Example 16] | tolerated well | tolerated well | logP = 2.89^a) | activity against weeds (degree of damage vs untreated control) (weeds [3]): very strong activity; activity against weeds (degree of damage vs untreated control) (weeds [5]): very strong activity
13 | N#Cc1cc(F)c(-n2c(=O)cc(C(F)(F)F)[nH]c2=O)cc1N1CCC(O)CC1 [Example 18] |  |  | logP = 1.62^a) | 
14 | Cn1c(C(F)(F)F)cc(=O)n(-c2cc(N3CCC(O)CC3)c(C#N)cc2F)c1=O [Example 20] | tolerated well | tolerated well | logP = 3.97^a) | activity against weeds (degree of damage vs untreated control) (weeds [3]): very strong activity; activity against weeds (degree of damage vs untreated control) (weeds [5]): very strong activity
15 | CCOC(=O)C1CCCN(c2cc(-n3c(=O)cc(C(F)(F)F)[nH]c3=O)c(F)cc2C#N)C1 (stereo not drawn) [Example 24] | tolerated well | tolerated well | logP = 3.31^a) | 
16 | COC(=O)C1CCN(c2cc(-n3c(=O)cc(C(F)(F)F)n(C)c3=O)c(F)cc2C#N)CC1 [Example 28] | tolerated well | tolerated well | logP = 2.88^a) | activity against weeds (degree of damage vs untreated control) (weeds [3]): very strong activity; activity against weeds (degree of damage vs untreated control) (weeds [5]): very strong activity
17 | Cn1c(C(F)(F)F)cc(=O)n(-c2cc(N3CCC(O)C3)c(C#N)cc2F)c1=O (stereo not drawn) [Example 31] | tolerated well | tolerated well | logP = 2.02^a) | activity against weeds (degree of damage vs untreated control) (weeds [3]): very strong activity; activity against weeds (degree of damage vs untreated control) (weeds [5]): very strong activity

Row | SMILES | tolerance by crop plants [1] | tolerance by crop plants [2] | logP [4] | other results
18 | Cn1c(C(F)(F)F)cc(=O)n(-c2cc(N3CCC4(CC3)OCCO4)c(C#N)cc2F)c1=O [Example 34] |  |  | logP = 2.67^a) | 
19 | N#Cc1cc(F)c(-n2c(=O)cc(C(F)(F)F)n(N)c2=O)cc1N1CCC2(CC1)OCCO2 [Example 35] |  |  | logP = 2.37^a) | 
20 | Cn1c(C(F)(F)F)cc(=O)n(-c2cc(N3CCC(C(F)(F)F)CC3)c(C#N)cc2F)c1=O [Example 37] |  |  | logP = 3.52^a) | 
21 | N#Cc1cc(F)c(-n2c(=O)cc(C(F)(F)F)[nH]c2=O)cc1N1CCC(C#N)CC1 [Example 38] |  |  | logP = 2.08^a) | 
22 | Cn1c(C(F)(F)F)cc(=O)n(-c2cc(N3CCC4(CC3)OCCCO4)c(C#N)cc2F)c1=O [Example 40] |  |  | logP = 2.69^a) | 
23 | N#Cc1cc(F)c(-n2c(=O)cc(C(F)(F)F)n(N)c2=O)cc1N1CCC2(CC1)OCCCO2 [Example 41] |  |  | logP = 2.40^a) | 
24 | N#Cc1cc(F)c(-n2c(=O)cc(C(F)(F)F)[nH]c2=O)cc1N1CCC(C(F)(F)F)CC1 [Example 42] |  |  | logP = 2.96^a) | 
25 | Cn1c(C(F)(F)F)nn(-c2cc(N3CCC4(CC3)OCCO4)c(C#N)cc2F)c1=O [Example 50] |  |  | logP = 2.81^a) | 
26 | CCOC(=O)C1CCN(c2cc(N3C(=O)C4=C(CCCC4)C3=O)c(F)cc2C#N)CC1 [Example 59] |  |  | logP = 3.77^a) | 
27 | CCOC(=O)C1CCN(c2cc(N3C(=O)C(C)=C(C)C3=O)c(F)cc2C#N)CC1 [Example 64] |  |  | logP = 3.37^a) | 
28 | CCOC(=O)C1CCCN(c2cc(-n3c(=O)cc(C(F)(F)F)n(C)c3=O)c(F)cc2Cl)C1 (stereo not drawn) [Example 68] |  |  | logP = 3.87^a) | 
29 | CCOC(=O)C1CCCCN1c1cc(-n2c(=O)cc(C(F)(F)F)n(C)c2=O)c(F)cc1Cl (stereo not drawn) [Example 69] |  |  | logP = 4.07^a) | 
30 | CCOC(=O)C1CCCN(c2cc(-n3c(=O)cc(C(F)(F)F)n(C)c3=O)c(F)cc2Br)C1 (stereo not drawn) [Example 73] |  |  | logP = 3.99^a) | 
31 | CCOC(=O)C1CCCCN1c1cc(-n2c(=O)cc(C(F)(F)F)n(C)c2=O)c(F)cc1Br (stereo not drawn) [Example 74] |  |  | logP = 4.18^a) | 
32 | CCOC(=O)C1CCCN1c1cc(-n2c(=O)cc(C(F)(F)F)n(C)c2=O)c(F)cc1Br (stereo not drawn) [Example 82] |  |  | logP = 3.61^a) | 
33 | CCOC(=O)C1CCCN1c1cc(-n2c(=O)cc(C(F)(F)F)n(C)c2=O)c(F)cc1Cl (stereo not drawn) [Example 83] |  |  | logP = 3.49^a) | 
34 | CCOC(=O)C1CCCN1c1cc(-n2c(=O)cc(C(F)(F)F)n(C)c2=O)c(F)cc1C#N (stereo not drawn) [Example 84] |  |  | logP = 3.01^a) | 

Reference: US20060148649A1, “Substituted n-aryl nitrogen heterocycles” (priority 2003, published 2006)
